Experimental data taken from patent US10174037B2, “Dihydropyrazolopyrimidinone compounds as PDE2 inhibitors” (Merck Sharp & Dohme Corp., priority 2015, dated 2019).
Where two headings read alike, the source gives them in different places.

Assays:
[1] = molecular target: human PDE2A1 (Homo sapiens (Human), UniProt O00408); assay: PDE selectivity IMAP FP assay, human PDE2A1; format: biochemical; conditions: Human PDE2
Procedure, shortened: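 IMAP fluorescence polarization assay; PDE2 substrate 50 nM FAM-cAMP containing 1000 nM cGMP, enzyme diluted for 20% substrate conversion, in 10 mM Tris HCl pH 7.2, 10 mM MgCl2, 1 mM DTT. Reaction 60 min at room temperature, stopped with IMAP binding solution; polarization read after 1 h. Ki reported.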

[2] = molecular target: Rhesus PDE2A3 (Macaca mulatta, UniProt B3VTJ2); assay: PDE2 fluorescence polarization (IMAP FP) assay, rhesus PDE2A3; format: biochemical, rhesus macaque
Rhesus PDE2A3, sequence (B3VTJ2 1-941): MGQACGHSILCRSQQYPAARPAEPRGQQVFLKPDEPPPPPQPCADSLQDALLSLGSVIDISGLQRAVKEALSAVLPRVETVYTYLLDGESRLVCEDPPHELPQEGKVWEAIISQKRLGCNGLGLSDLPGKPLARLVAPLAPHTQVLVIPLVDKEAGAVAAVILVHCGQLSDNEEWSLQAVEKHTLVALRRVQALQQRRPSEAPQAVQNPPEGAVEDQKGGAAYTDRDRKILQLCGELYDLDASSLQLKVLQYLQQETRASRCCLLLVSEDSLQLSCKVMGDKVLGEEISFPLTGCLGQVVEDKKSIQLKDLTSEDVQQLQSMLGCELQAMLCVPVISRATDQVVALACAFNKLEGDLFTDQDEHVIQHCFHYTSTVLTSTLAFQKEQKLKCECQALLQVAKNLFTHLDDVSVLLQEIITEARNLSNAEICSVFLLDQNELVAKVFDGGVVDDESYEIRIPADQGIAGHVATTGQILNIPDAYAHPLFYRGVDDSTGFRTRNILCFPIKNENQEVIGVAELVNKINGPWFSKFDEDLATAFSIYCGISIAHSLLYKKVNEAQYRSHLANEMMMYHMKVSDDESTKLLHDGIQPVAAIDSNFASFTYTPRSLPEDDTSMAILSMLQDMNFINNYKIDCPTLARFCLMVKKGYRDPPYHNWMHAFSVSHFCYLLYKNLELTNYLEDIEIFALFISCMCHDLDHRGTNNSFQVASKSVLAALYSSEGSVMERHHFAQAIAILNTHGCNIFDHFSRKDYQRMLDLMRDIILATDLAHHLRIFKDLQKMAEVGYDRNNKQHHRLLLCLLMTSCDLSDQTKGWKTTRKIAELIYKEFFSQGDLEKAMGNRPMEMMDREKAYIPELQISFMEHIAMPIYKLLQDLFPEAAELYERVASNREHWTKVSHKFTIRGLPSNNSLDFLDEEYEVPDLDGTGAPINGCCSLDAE

[3] = Lab B, read-out: Human PDE2 Ki (nM) Lab B
[4] = Lab B, read-out: Rhesus PDE2 Ki (nM) Lab B

human PDE2A1, sequence (O00408 other isoform, or with tags, fused parts or gaps): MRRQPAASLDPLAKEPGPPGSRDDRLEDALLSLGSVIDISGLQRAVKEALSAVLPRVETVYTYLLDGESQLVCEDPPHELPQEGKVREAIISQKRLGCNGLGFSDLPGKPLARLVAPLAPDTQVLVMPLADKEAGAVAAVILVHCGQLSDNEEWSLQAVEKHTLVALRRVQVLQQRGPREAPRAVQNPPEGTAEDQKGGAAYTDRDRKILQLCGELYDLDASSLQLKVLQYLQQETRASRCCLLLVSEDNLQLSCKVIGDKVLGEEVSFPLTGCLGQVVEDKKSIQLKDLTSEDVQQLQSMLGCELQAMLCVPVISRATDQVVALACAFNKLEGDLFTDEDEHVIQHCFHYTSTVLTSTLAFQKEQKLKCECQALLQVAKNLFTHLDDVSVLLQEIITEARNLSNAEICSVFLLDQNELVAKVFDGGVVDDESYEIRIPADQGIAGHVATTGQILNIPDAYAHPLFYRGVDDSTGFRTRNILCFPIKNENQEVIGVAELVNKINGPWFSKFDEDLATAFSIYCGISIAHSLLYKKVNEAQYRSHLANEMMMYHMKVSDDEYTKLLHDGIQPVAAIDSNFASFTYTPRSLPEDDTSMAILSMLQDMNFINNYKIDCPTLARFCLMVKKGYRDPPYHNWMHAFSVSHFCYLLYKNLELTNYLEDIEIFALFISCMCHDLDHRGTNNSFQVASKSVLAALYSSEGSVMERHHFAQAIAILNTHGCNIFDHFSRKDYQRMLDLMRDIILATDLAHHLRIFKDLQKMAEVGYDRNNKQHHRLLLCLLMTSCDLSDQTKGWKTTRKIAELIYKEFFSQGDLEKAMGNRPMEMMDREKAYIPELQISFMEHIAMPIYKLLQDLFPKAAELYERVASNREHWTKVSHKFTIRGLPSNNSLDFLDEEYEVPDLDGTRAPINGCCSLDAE

Structure (SMILES)	Ki [1, 3] [nM]	Ki [2, 4] [nM]	Ki ([1]; Lab A, read-out: Human PDE2 Ki (nM) Lab A) [nM]	Ki ([2]; Lab A, read-out: Rhesus PDE2 Ki (nM) Lab A) [nM]
CC(c1ccc(OC(F)(F)F)cc1)n1nc(C(F)F)c2c(=O)[nH]c(O)nc21 (single isomer, unassigned) [Example 274, (S)- or (R)-3-(Difluoromethyl)-6-hydroxy-1-(1-(4-(trifluoromethoxy)phenyl)ethyl)-1H-pyrazolo[3,4-d]pyrimidin-4(5H)-one]	4	3.2		
C[C@@H](c1ccc(C(F)(F)F)cc1)n1nc(CCO)c2c(=O)[nH]c(O)nc21 [Example 293, (S)-6-Hydroxy-3-(2-hydroxyethyl)-1-(1-(4-(trifluoromethyl)phenyl)ethyl)-1H-pyrazolo[3,4-d]pyrimidin-4(5H)-one]	10	12		
CC(c1ccc(OC(F)(F)F)c(F)c1)n1nc(CF)c2c(=O)[nH]c(N(C)C)nc21 (single isomer, unassigned) [Example 166, (R)- or (S)-6-(Dimethylamino)-1-(1-(3-fluoro-4-(trifluoromethoxy)phenyl)ethyl)-3-(fluoromethyl)-1H-pyrazolo[3,4-d]pyrimidin-4(5H)-one]	0.61	0.91		
CC(C)C(c1ccc(C(F)(F)F)cc1F)n1nc(CO)c2c(=O)[nH]c(N(C)C)nc21 (single isomer, unassigned) [Example 133, (S)- or (R)-6-(Dimethylamino)-1-(1-(2-fluoro-4-(trifluoromethyl)phenyl)-2-methylpropyl)-3-(hydroxymethyl)-1H-pyrazolo[3,4-d]pyrimidin-4(5H)-one]	0.45	0.6		
O=c1[nH]c(O)nc2c1c(CC(F)(F)F)nn2C(c1ccc(C(F)(F)F)c(F)c1)C1CC1 (single isomer, unassigned) [Example 238, (R)- or (S)-1-(Cyclopropyl(3-fluoro-4-(trifluoromethyl)phenyl)methyl)-6-hydroxy-3-(2,2,2-trifluoroethyl)-1H-pyrazolo[3,4-d]pyrimidin-4(5H)-one]	5.8	7.1		
CC(C)C(c1ccc(C(F)(F)F)cc1)n1nc(CO)c2c(=O)[nH]c(N(C)C)nc21 (single isomer, unassigned) [Example 64, (R)- or (S)-6-Dimethylamino)-3-(hydroxymethyl)-1-(2-methyl-1-(4-(trifluoromethyl)phenyl)propyl)-1H-pyrazolo[3,4-d]pyrimidin-4(5H)-one]	0.29	0.39		
CCC(c1ccc(OC(F)F)cc1)n1nc(CO)c2c(=O)[nH]c(N(C)C)nc21 (single isomer, unassigned) [Example 124, (R)- or (S)-1-(1-(4-(Difluoromethoxy)phenyl)propyl)-6-(dimethylamino)-3-(hydroxymethyl)-1H-pyrazolo[3,4-d]pyrimidin-4(5H)-one]	0.73	0.7		
CC(C)C(c1ccc(C(C)(F)F)c(F)c1)n1nc(CO)c2c(=O)[nH]c(N(C)C)nc21 (single isomer, unassigned) [Example 116, (R)- or (S)-1-(1-(4-(1,1-Difluoroethyl)-3-fluorophenyl)-2-methylpropyl)-6-(dimethylamino)-3-(hydroxymethyl)-1H-pyrazolo[3,4-d]pyrimidin-4(5H)-one]	0.13	0.16		
CN(C)c1nc2c(c(CO)nn2C(c2ccc(C(C)(F)F)cc2)C2CC2)c(=O)[nH]1 (single isomer, unassigned) [Example 140, (R)- or (S)-1-(Cyclopropyl(4-(1,1-difluoroethyl)phenyl)methyl)-6-(dimethylamino)-3-(hydroxymethyl)-1H-pyrazolo[3,4-d]pyrimidin-4(5H)-one]	0.07	0.097		
CC(c1ccc(C2CC2)cc1)n1nc(CO)c2c(=O)[nH]c(O)nc21 (centres unmarked) [Example 6, 1-(1-(4-Cyclopropylphenyl)ethyl)-6-hydroxy-3-(hydroxymethyl)-1H-pyrazolo[3,4-d]pyrimidin-4(5H)-one]			50	78
CN(C)c1nc2c(c(CO)nn2C(c2ccc(OC(F)F)c(F)c2)C2CC2)c(=O)[nH]1 (single isomer, unassigned) [Example 122, (R)- or (S)-1-(Cyclopropyl(4-(difluoromethoxy)-3-fluorophenyl)methyl)-6-(dimethylamino)-3-(hydroxymethyl)-1H-pyrazolo[3,4-d]pyrimidin-4(5H)-one]	0.3	0.37		
CC(c1ccc(C(F)(F)F)cc1)n1nc(C(F)(F)F)c2c(=O)[nH]c(O)nc21 (single isomer, unassigned) [Example 255, (S)- or (R)-6-Hydroxy-3-(trifluoromethyl)-1-(1-(4-(trifluoromethyl)phenyl)ethyl)-1H-pyrazolo[3,4-d]pyrimidin-4(5H)-one]	2.4	3.7		
CN(C)c1nc2c(c(CF)nn2C(c2ccc(C(F)(F)F)cc2)C2CC2)c(=O)[nH]1 (single isomer, unassigned) [Example 179, (S)- or (R)-1-(Cyclopropyl(4-(trifluoromethyl)phenyl)methyl)-6-(dimethylamino)-3-(fluoromethyl)-1H-pyrazolo[3,4-d]pyrimidin-4(5H)-one]	0.072	0.072		
CC(c1ccc(OC(F)(F)F)c(F)c1)n1nc(CO)c2c(=O)[nH]c(N(C)C)nc21 (single isomer, unassigned) [Example 84, (R)- or (S)-6-(Dimethylamino)-1-(1-(3-fluoro-4-(trifluoromethoxy)phenyl)ethyl)-3-(hydroxymethyl)-1H-pyrazolo[3,4-d]pyrimidin-4(5H)-one]	0.68	1		
CC(c1ccc(OC(F)(F)F)c(F)c1)n1nc(CO)c2c(=O)[nH]c(N(C)C)nc21 (single isomer, unassigned) [Example 85, (S)- or (R)-6-(Dimethylamino)-1-(1-(3-fluoro-4-(trifluoromethoxy)phenyl)ethyl)-3-(hydroxymethyl)-1H-pyrazolo[3,4-d]pyrimidin-4(5H)-one]	0.24	0.3		
CC(C)C(c1ccc(C(F)(F)F)cc1)n1nc(CC(F)(F)F)c2c(=O)[nH]c(O)nc21 (single isomer, unassigned) [Example 240, (R)- or (S)-6-Hxdroxy-1-(2-methyl-1-(4-(trifluoromethyl)phenyl)propyl)-3-(2,2,2-trifluoroethyl)-1H-pyrazolo[3,4-d]pyrimidin-4(5H)-one]	8	11		
CC(c1ccc(C(F)(F)F)c(F)c1)n1nc(CC(F)(F)F)c2c(=O)[nH]c(O)nc21 (single isomer, unassigned) [Example 235, (S)- or (R)-1-(1-(3-Fluoro-4-(triduoromethyl)phenyl)ethyl)-6-hydroxy-3-(2,2,2-trifluoroethyl)-1H-pyrazolo[3,4-d]pyrimidin-4(5H)-one]	1.4	1.5		
CC(c1ccc(C(C)(C)C)cc1)n1nc(CF)c2c(=O)[nH]c(N(C)C)nc21 (single isomer, unassigned) [Example 170, (R)- or (S)-1-(1-(4-tert-Butylphenyl(ethyl)-6-(dimethylamino)-3-(fluoromethyl)-1H-pyrazolo[3,4-d]pyrimidin-4(5H)-one]	7.6	11		
CC(C)C(c1ccc(C(F)(F)F)c(F)c1)n1nc(CO)c2c(=O)[nH]c(N(C)C)nc21 (single isomer, unassigned) [Example 143, (S)- or (R)-6-(Dimethylamino)-1-(1-(3-fluoro-4-(trifluoromethyl)phenyl)-2-methylpropyl)-3-(hydroxymethyl)-1H-pyrazolo[3,4-d]pyrimidin-4(5H)-one]	0.068	0.063		
CC(c1ccc(C(F)F)cc1)n1nc(CF)c2c(=O)[nH]c(N(C)C)nc21 (single isomer, unassigned) [Example 191, (S)- or (R)-1-(1-(4-(Difluoromethyl)phenyl)ethyl)-6-(dimethylamino)-3-(fluoromethyl)-1H-pyrazolo[3,4-d]pyrimidin-4(5H)-one]	0.38	0.42		
CC(C)C(c1ccc(C(C)(C)C)cc1)n1nc(CC(F)(F)F)c2c(=O)[nH]c(O)nc21 (single isomer, unassigned) [Example 260, (R)- or (S)-1-(1-(4-tert-Butylphenyl)-2-methylpropyl)-6-hydroxy-3-(2,2,2-trifluoroethyl)-1H-pyrazolo[3,4-d]pyrimidin-4(5H)-one]	25	26		
CC(C)[C@@H](c1ccc(C(C)(C)C)cc1)n1nc(CF)c2c(=O)[nH]c(O)nc21 [Example 49, (S)-1-(1-(4-tert-Bulylphenyl)-2-melhylpropyl)-3-(fluoromethyl)-6-hydroxy-1H-pyrazolo[3,4-d]pyrimidin-4(5H)-one]	2.3	2.5		
CCC(c1ccc(C(F)(F)F)cc1F)n1nc(CO)c2c(=O)[nH]c(N(C)C)nc21 (single isomer, unassigned) [Example 130, (R)- or (S)-6-(Dimethylamino)-1-(1-(2-fluoro-4-(trifluoromethyl)phenyl)propyl)-3-(hydroxymethyl)-1H-pyrazolo[3,4-d]pyrimidin-4(5H)-one]	0.071	0.12		
CC(C)C(c1ccc(C(C)(F)F)c(F)c1)n1nc(CF)c2c(=O)[nH]c(N(C)C)nc21 (single isomer, unassigned) [Example 219, (S)- or (R)-1-(1-(4-(1,1-Difluoroethyl)-3-fluorophenyl)-2-methylpropyl)-6-(dimethylamino)-3-(fluoromethyl)-1H-pyrazolo[3,4-d]pyrimidin-4(5H)-one]	0.022	0.03		
CC(c1ccc(C(F)F)c(F)c1)n1nc(CF)c2c(=O)[nH]c(N(C)C)nc21 (single isomer, unassigned) [Example 196, (R)- or (S)-1-(1-(4-(Difluoromethyl)-3-fluorophenyl)ethyl)-6-(dimethylamino)-3-(fluoromethyl)-1H-pyrazolo[3,4-d]pyrimidin-4(5H)-one]	0.31	0.59		
